“Also recorded” adds a separate entry of the source. *1 amine or outer side, *2 acyl side, *3 side chain or, on linkers, in order; H or OH if unused. Where a SMILES comes first, the peptide text is derived from it. Bridges are numbered along the chain shown (N, C = ends). Roman numbers before positions name the chains, in order. [ ]: non-standard residue; d: D form. Actinocin(9to1) = Cc1c2oc3c(C)ccc(C(=O)[*:1])c3nc-2c(C(=O)[*:2])c(N)c1=O; NMeV = CN[C@H](C(=O)O)C(C)C; Sar = CNCC(=O)O

One experiment deals with human aSyn 3′UTR. Nature of the experiment: Firefly luciferase-aSyn 3′UTR reporter assay in SH-SY5Y cells. The class given is cell-based. The settings on record: for luciferase expression, Firefly/Renilla ratio, 1.1 kb human aSyn 3′UTR vector: 100 μM for 24 h. The protocol: The human SH-SY5Y neuroblastoma cell line (ATCC) was cultured following the distributor's instructions. Cells were plated at a density of 4×10^5 cells per well (in 48-well plates) in wells coated with 0.1% gelatin (Specialty Media, Millipore) 24 hours prior to transfection. Transfections were performed with Lipofectamine 2000 reagent (Invitrogen) following the manufacturer's instructions. The human HEK-293T cell line (ATCC) was cultured in DMEM (Invitrogen) supplemented with 10% FBS (Invitrogen). Cells were plated at a density of 8×10^3 cells per well (96-well plates). Mir-34b-3p precursor, specific Anti-miR Mir-34b-3p inhibitor, Anti-miR Negative Control #1, and Pre-miR Negative Control #1 were purchased from Ambion. Cells were co-transfected with luciferase reporter plasmids and a small RNA or inhibitor (as indicated) using siPort NeoFx reagent (Ambion) following manufacturer's protocol. Luciferase and Renilla activities were measured 24 h or 48 h after transfection using Dual-Glo luciferase assay system (Promega).
On the technique in general: Reporter assays use an easily measured gene product as a stand-in for the process of interest.

The subject of experiment [1] is aSynL:total ratio. As to the kind of experiment: aSynL:total ratio by RT-qPCR in rat primary cortical cultures. The class given is cell-based. The settings on record: for dopamine-mediated potentiation of the aSynL:total ratio: nomifensine 100 μM with dopamine 100 μM for 24 h; for aSynL:total ratio: rat primary cortical neurons, RT-qPCR, dopamine, picrotoxin, muscimol, NMDA 100 μM, kainic acid 50 μM, vs vehicle. The protocol: (§1) Cultures of rodent neurons were prepared as described in ^53. Cells were maintained in vitro for 3-5 days before drug treatments or transfection using Lipofectamine 2000 (Iinvitrogen) following manufacturer's instructions.
RT-qPCR analyses were performed as described ^60. The human aSynL:Total mRNA ratio was quantified in terms of AACt ^60 using primer pair Lh for the human long form (HaSynLfw [[…]] SEQ ID NO: 13, and HaSynLry [[…]]) SEQ ID NO: 14 and primer pair Th for human total (HaSynTfw [[…]] SEQ ID NO: 15 and HaSynTrv [[…]] SEQ ID NO: 16). For analysis of either mouse or rat, primer pairs mrL (RaSynLfw [[…]] SEQ ID NO: 17 and RaSynLrv [[…]] SEQ ID NO: 18) and mrT (RaSynTfw [[…]] SEQ ID NO: 19, RaSynTry [[…]] SEQ ID NO: 20) were used.

Experiment [2] has as its system aSynL:total ratio. As to the kind of experiment: aSynL:total ratio in total RNA of SH-SY5Y cells by RT-qPCR (transcription inhibition). Type of experiment: cell-based, human. Conditions: actinomycin D 10 μg/mL with dopamine 100 μM, total RNA, 12 or 24 h.
Another experiment has as its system aSynL/total ratio. Nature of the experiment: aSynL/total ratio in SK-N-MC cells treated with chronic low-dose rotenone (reanalysis of GEO GSE4773). The settings on record: one or two weeks vs vehicle. The class given is cell-based, human.
In experiment [3] the test system is aSynL:total ratio. As to the kind of experiment: In vivo I-Dopa treatment of DAT-Cre/Dicer mice, aSynL:total ratio in brain tissue by RT-qPCR. On the set-up: species or system mouse. As to the method: (§2) 2-month old DAT-Cre/Dicer^flox/flox and DAT-Cre/Dicer^flox/+24 or forty-weeks old male PAC-Tg (SNCA)+/−;Snca+/− (a gift from Dr. Robert L. Nussbaum, University of California San Francisco, ^25) received 20 mg/kg I-Dopa with 12 mg/kg benserazide (or PBS vehicle only) by intraperitoneal injection daily for 5 days. […] 1 hour after the last dose, mice were anesthetized by inhaled isoflurane and the brains rapidly removed. The prefrontal cortex, striatum and midbrain were dissected out and stored at −80° C.
RT-qPCR analyses were performed as described ^60.

For a further experiment, the system named is human aSyn protein. Nature of the experiment: In vivo I-Dopa treatment of aSyn PAC transgenic mice, aSyn protein in brain tissue by ELISA. On the set-up: species or system mouse. The settings on record: 20 mg/kg i.p. daily for 5 days. The protocol:
(§3) Mitochondria were purified using Qproteome Mitochondria Isolation Kit (Qiagen) and membrane fractions were isolated using Subcellular Protein Fractionation Kit (Pierce) following manufacturers' instructions. Human aSyn protein levels were determined using the aSyn Human ELISA kit (Invitrogen). Absorbance was read on a VersaMax ELISA Microplate Reader (Molecular Devices, Inc) at 450 nm. The amount of human aSyn was normalized to total cellular protein as determined with the DC Protein Assay Reagent kit (Bio-Rad). Mitochondrial preparations were validated by Western blot analysis for Tom20 and synaptophysin (see FIG. 12d).
as §2
(In an ELISA, binding on a coated surface is turned into a signal by an enzyme label.)

Experiment [4] has as its system aSyn protein. Nature of the experiment: Colocalization of aSyn and Mitotracker in primary cortical neuron cultures from PAC transgenic mice. The class given is cell-based. The settings on record: primary mouse cortical neurons, 100 μM for 24 h. The protocol:
as §1
Immunostainings were done as previously described ^59 with Rabbit anti-aSyn (Santa Cruz, 1:200) or Mouse anti-Synaptophysin (Millipore, 1:100) as primary antibodies, and Alexa 555 goat anti-rabbit IgG or Alexa 633 goat anti-mouse IgG (Invitrogen) secondary antibodies. MitoTracker-Orange (Invitrogen, 1:10000) was added into media for 15-20 min in living cell culture. Collocalization analyses were done in R using EBImage package; using Pearson's correlation coefficient.

The test system of experiment [5] is aSyn protein. Nature of the experiment: aSyn protein by ELISA in mitochondrial and membrane fractions of SH-SY5Y cells. Type of experiment: cell-based, human. Conditions: 100 μM for 48 h. As to the method: as §3
Experiment [6] relates to aSyn protein. Nature of the experiment: Total endogenous aSyn protein by ELISA in SH-SY5Y cells. The settings on record: 100 μM for 48 h. Type of experiment: cell-based, human. As to the method: as §3
The test system of experiment [7] is aSynL:total ratio. As to the kind of experiment: In situ hybridization for aSyn CDS and long 3′UTR in primary cortical neuron cultures from aSyn PAC transgenic mice. The class given is cell-based. Conditions: 100 μM for 24 h, DIV 4 PAC mouse cortical neurons. The protocol: as §1
In situ hybridization were performed using QuantiGene® ViewRNA ISH Cell Assay (Panomics) following manufacturer's instructions, with QG ViewRNA TYPE 8 Probe Sets (Panomics) designed to target either human aSyn CDS sequences (bases 264-634 from NM_000345.3; Panomics) or to target human aSynL 3′UTR sequences (bases 1180-1760 from NM_000345.3).

Consider `CN1Cc2c(N)cccc2C(c2ccccc2)C1` (stereo not drawn) [nomifensine], for which, in the experiment on human aSyn 3′UTR (SH-SY5Y, dopamine 100 μM with nomifensine 100 μM, 24 h), the “dopamine-increased luciferase accumulation, luciferase-aSyn 3′UTR vector” value was “suppressed”. For the same compound, the figures for the “dopamine-mediated potentiation of the aSynL:total ratio” value in the experiment on aSynL:total ratio [1] and in the experiment on aSynL:total ratio [1] (listed as Nomifensine) were “suppressed sensitivity” and “suppresses”, respectively.
As for `CN[C@H](CC(=O)O)C(=O)O` [NMDA], the “aSynL:total ratio” value in the experiment on aSynL:total ratio [1] is listed as “did not appear to impact”.
Regarding `CN1CCCC1c1cccnc1` (stereo not drawn) [nicotine], the “expression of an aSynL-3′UTR bearing reporter gene (Firefly/Renilla)” value in the experiment with human aSyn 3′UTR (nicotine 100 μM, with or without dopamine 100 μM, 24 h) is on record as “decreases”.
In the case of `Cc1c2oc3c(C)ccc(C(=O)N[C@@H]4C(=O)N[C@H](C(C)C)C(=O)N5CCC[C@H]5C(=O)N(C)CC(=O)N(C)[C@@H](C(C)C)C(=O)O[C@@H]4C)c3nc-2c(C(=O)N[C@@H]2C(=O)N[C@H](C(C)C)C(=O)N3CCC[C@H]3C(=O)N(C)CC(=O)N(C)[C@@H](C(C)C)C(=O)O[C@@H]2C)c(N)c1=O` [actinomycin D] (I: T[dV]P[Sar][NMeV] / II: T[dV]P[Sar][NMeV]; ester I:1-I:C, II:1-II:C; linker I:N-II:N via Actinocin(9to1)), the “dopamine-mediated increase in aSynL:total ratio” value with aSynL:total ratio [2] is on record as “prevented the increase”.
As to `NCc1cc(=O)[nH]o1` [muscimol], the “luciferase expression, Firefly/Renilla ratio, 1.1 kb human aSyn 3′UTR vector” value with human aSyn 3′UTR (SH-SY5Y) was “decreased”. For the same compound, in the experiment with aSynL:total ratio [1], the “aSynL:total ratio” value is “alter”.
In the case of `C=C(C)[C@H]1Cc2c(ccc3c2O[C@@H]2COc4cc(OC)c(OC)cc4[C@@H]2C3=O)O1` [rotenone], the “aSynL/total ratio (Affymetrix probesets 204467_s_at and 211546_x_at)” value in the experiment with aSynL/total ratio was “predictably modify; also recorded: increased”; with aSynL/total ratio (listed as Rotenone) it was “Mitochondrial toxin increases aSynL: total ratio”.
On to `N[C@@H](Cc1ccc(O)c(O)c1)C(=O)O` [I-Dopa], for which, in the experiment with aSynL:total ratio [3] (2 month-old control DAT-Cre/Dicer flox/+ mice, 20 mg/kg i.p. daily for 5 days with 12 mg/kg benserazide), the “aSynL:total ratio in midbrain tissue” value is “significantly increased”. For the same compound, in the experiment with aSynL:total ratio [3] (DAT-Cre/Dicer flox/flox mice deficient in mDNs, 20 mg/kg i.p. daily for 5 days), the “aSynL:total ratio in midbrain tissue” value is “did not alter”. The “aSynL:total ratio in brain regions other than midbrain” value in the experiment on aSynL:total ratio [3] (such as striatal tissue, 20 mg/kg i.p. daily for 5 days) is “not apparent”. Besides, in the experiment with human aSyn protein, the “human aSyn protein in midbrain (ELISA, normalized to total protein)” value is reported as “significantly increased” and the “human aSyn protein in other brain regions such as striatum or cortex” value is reported as “not”.
With `C=C(C)[C@H]1CN[C@H](C(=O)O)[C@H]1CC(=O)O` [kainic acid], the “aSynL:total ratio” value in the experiment with aSynL:total ratio [1] is on record as “did not appear to impact”.
In the case of picrotoxin, the “fraction of aSyn protein that colocalized with mitochondria (Mitotracker)” value in the experiment on aSyn protein [4] was “significantly increased”. Moreover, in the experiment on aSyn protein [5], the “aSyn content within total cell membrane fraction relative to whole cell lysate (ELISA)” value was “decreased; also recorded: reduction” and the “aSyn protein content in mitochondrial preparations relative to whole cell aSyn content (ELISA)” value was “increased proportion; also recorded: preferentially increased”. Further, the “endogenous aSyn protein levels (ELISA, normalized to total protein)” value in the experiment with aSyn protein [6] was “significantly increased”. Moreover, the “aSynL:total ratio (ratio of in situ hybridization signals)” value with aSynL:total ratio [7] is given as “increase”. In addition, the “luciferase expression, Firefly/Renilla ratio, 1.1 kb human aSyn 3′UTR vector” value in the experiment on human aSyn 3′UTR (SH-SY5Y) is listed as “increased”. Also, the “luciferase expression, Firefly/Renilla ratio, short aSyn 3′UTR vector” value in the experiment with human aSyn 3′UTR (SH-SY5Y, 100 μM for 24 hrs) is “do not influence”. In addition, in the experiment with aSynL:total ratio [1], the “aSynL:total ratio” value is listed as “significantly increased; also recorded: alter”.
